Reference: patent publication US11535643B2, “Macrolides with modified desosamine sugars and uses thereof” (President and Fellows of Harvard College, priority 2015, dated 2022)
Converted amounts (≈) assume the structure as drawn. Read-outs that look alike come from different tables or passages of the source.

Experiments:
Assay type in all cases: cell-based
S. aureus = experiment: Broth dilution MIC determination (CLSI) against S. aureus strains; details: Staphylococcus aureus
Method in brief: (§1)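 Macrolide MICs come from CLSI-standard broth dilution testing of distinct strains, several multidrug-resistant, selected with attention to macrolide resistance mechanisms; two reference macrolides, azithromycin and solithromycin, were included.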

S. pneumoniae = experiment: Broth dilution MIC determination (CLSI) against S. pneumoniae strains; details: Streptococcus pneumoniae
Method in brief: as §1

S. pyogenes = experiment: Broth dilution MIC determination (CLSI) against S. pyogenes strains; details: Streptococcus pyogenes
Method in brief: as §1

E. faecalis = experiment: Broth dilution MIC determination (CLSI) against E. faecalis strains; details: Enterococcus faecalis
Method in brief: as §1

E. coli = experiment: Broth dilution MIC determination (CLSI) against E. coli strains; details: Escherichia coli
Method in brief: as §1

A. baumannii = experiment: Broth dilution MIC determination (CLSI) against A. baumannii strains; details: Acinetobacter baumannii
Method in brief: as §1

K. pneumoniae = experiment: Broth dilution MIC determination (CLSI) against K. pneumoniae strains; details: Klebsiella pneumoniae
Method in brief: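 Azithromycin and solithromycin served as controls; MICs were obtained by standard CLSI broth dilution on a strain panel including multidrug-resistant and macrolide-resistant isolates.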

P. aeruginosa = experiment: Broth dilution MIC determination (CLSI) against P. aeruginosa strains; details: Pseudomonas aeruginosa
Method in brief: as §1

H. influenzae = experiment: Broth dilution MIC determination (CLSI) against H. influenzae strains; details: Haemophilus influenzae
Description: Minimum inhibitory concentrations (MICs) for macrolides described herein have been determined for unique strains of S. aureus, S. pneumoniae, S. pyogenes, E. faecalis, E. coli, A. baumannii, K. pneumoniae, P. aeruginosa, and H. influenzae, including several multidrug-resistant strains, with a special focus on macrolide resistant mechanisms. Azithromycin and solithromycin were included as control compounds. CLSI standard procedures for broth dilution MIC determination were used. Data for exemplary compounds described herein is shown in Tables M1-M7 and in Tables N1-N4.

[1] = ATCC29213, ATCC29213, read-out: MIC S. aureus ATCC29213
[2] = MRSA / USA100, MRSA: USA100, read-out: MIC S. aureus MRSA: USA100
[3] = MRSA / USA300, MRSA: USA300, read-out: MIC S. aureus MRSA: USA300
[4] = USA600, USA600, GISA, read-out: MIC S. aureus USA600, GISA
[5] = read-out: MIC S. aureus erm A genotype
[6] = ATCC49619, ATCC49619, read-out: MIC S. pneumoniae ATCC49619
[7] = erm B + mef A genotype, read-out: MIC S. pneumoniae erm B + mef A genotype
[8] = erm B + tet(M, O) genotype, read-out: MIC S. pneumoniae erm B + tet(M, O) genotype
[9] = ATCC19615, ATCC19615, read-out: MIC S. pyogenes ATCC19615
[10] = macrolide-resistant, read-out: MIC S. pyogenes macrolide-resistant
[11] = ATCC29212, ATCC29212, read-out: MIC E. faecalis ATCC29212
[12] = Vancomycin-resistant, read-out: MIC E. faecalis Vancomycin-resistant
[13] = ATCC25922, ATCC25922, read-out: MIC E. coli ATCC25922
[14] = read-out: MIC E. coli CTX-M-14, CTX-M-14
[15] = read-out: MIC E. coli NDM-1, NDM-1
[16] = read-out: MIC E. coli TEM-1, TEM-1
[17] = ATCC19606, ATCC19606, read-out: MIC A. baumannii ATCC19606
[18] = IMP-4, read-out: MIC A. baumannii IMP-4
[19] = chromosomal class C, read-out: MIC A. baumannii chromosomal class C
[20] = imipenem-resistant, read-out: MIC A. baumannii imipenem-resistant
[21] = ATCC10031, ATCC10031, read-out: MIC K. pneumoniae ATCC10031
[22] = KPC-2, read-out: MIC K. pneumoniae KPC-2
[23] = SHV-12, read-out: MIC K. pneumoniae SHV-12
[24] = TEM-10, read-out: MIC K. pneumoniae TEM-10
[25] = ATCC27853, read-out: MIC P. aeruginosa ATCC27853
[26] = read-out: MIC P. aeruginosa HPA101-1477
[27] = ATCC49247, ATCC49247, read-out: MIC H. influenzae ATCC49247
[28] = erythro > 4, azithro 1, read-out: MIC H. influenzae erythro > 4, azithro 1
[29] = read-out: MIC S. pneumoniae mef A genotype, mef A genotype
[30] = read-out: MIC S. pneumoniae mef A genotype, mef A genotype, first of two such columns (c3)

Row | Structure (SMILES) | MIC (S. aureus; [1]) | MIC (S. aureus; [2]) | MIC (S. aureus; [3]) | MIC (S. aureus; [4]) | MIC (S. aureus; [5]) | MIC (S. pneumoniae; [6]) | MIC (S. pneumoniae; [7]) | MIC (S. pneumoniae; [8]) | MIC (S. pyogenes; [9]) | MIC (S. pyogenes; [10]) | MIC (E. faecalis; [11]) | MIC (E. faecalis; [12]) | MIC (E. coli; [13]) | MIC (E. coli; [15]) | MIC (A. baumannii; [17]) | MIC (A. baumannii; [20]) | MIC (K. pneumoniae; [21]) | MIC (K. pneumoniae; [22]) | MIC (P. aeruginosa; [25]) | MIC (H. influenzae; [27]) | further results
1 | CC[C@H]1OC(=O)[C@H](C)C(=O)[C@H](C)[C@@H](O[C@@H]2OC(Cn3cc(-c4cccc(N)n4)nn3)CC(N(C)C)C2O)[C@](C)(OC)C[C@@H](C)CN[C@H](C)[C@H]2N(CCCCn3cc(-c4cccc(N)c4)nn3)C(=O)O[C@]12C (some centres unmarked) [FSM-22124] | 4 µg/mL (≈ 4.05 µM) | > 32 µg/mL | > 32 µg/mL | > 32 µg/mL | > 32 µg/mL | ≤ 0.0312 µg/mL | 0.5 µg/mL | ≤ 0.0312 µg/mL | ≤ 0.0312 µg/mL | 2 µg/mL (≈ 2.03 µM) | 0.25 µg/mL (≈ 0.253 µM) | > 32 µg/mL | 16 µg/mL (≈ 16.2 µM) | > 32 µg/mL | 16 µg/mL (≈ 16.2 µM) | 16 µg/mL (≈ 16.2 µM) | 4 µg/mL (≈ 4.05 µM) | 32 µg/mL (≈ 32.4 µM) | > 32 µg/mL | 2 µg/mL (≈ 2.03 µM) | MIC (E. coli; [14]): > 32 µg/mL; MIC (E. coli; [16]): 16 µg/mL (≈ 16.2 µM); MIC (A. baumannii; [18]): > 32 µg/mL; MIC (A. baumannii; [19]): 16 µg/mL (≈ 16.2 µM); MIC (K. pneumoniae; [23]): > 32 µg/mL; MIC (K. pneumoniae; [24]): 8 µg/mL (≈ 8.1 µM); MIC (P. aeruginosa; [26]): > 32 µg/mL; MIC (H. influenzae; [28]): 1 µg/mL (≈ 1.01 µM)
2 | CC[C@H]1OC(=O)[C@H](C)C(=O)[C@H](C)[C@@H](O[C@@H]2OC(CNC(=O)c3ccccc3)CC(N(C)C)C2O)[C@](C)(OC)C[C@@H](C)CN[C@H](C)[C@H]2N(CCCCn3cc(-c4cccc(N)c4)nn3)C(=O)O[C@]12C (some centres unmarked) [FSM-21880] | 32 µg/mL (≈ 33.8 µM) | > 32 µg/mL | > 32 µg/mL | > 32 µg/mL | > 32 µg/mL | < 0.0313 µg/mL | 1 µg/mL | < 0.0313 µg/mL | < 0.0313 µg/mL | 1 µg/mL (≈ 1.06 µM) | 4 µg/mL (≈ 4.22 µM) | > 32 µg/mL | 16 µg/mL (≈ 16.9 µM) | 32 µg/mL (≈ 33.8 µM) | > 32 µg/mL | 32 µg/mL (≈ 33.8 µM) | 8 µg/mL (≈ 8.45 µM) | > 32 µg/mL | > 32 µg/mL | 4 µg/mL (≈ 4.22 µM) | MIC (S. pneumoniae; [29]): 2 µg/mL (≈ 2.11 µM); MIC (S. pneumoniae; [30]): 0.0625 µg/mL (≈ 0.066 µM); MIC (H. influenzae; [28]): 4 µg/mL (≈ 4.22 µM)
3 | CC[C@H]1OC(=O)[C@H](C)C(=O)[C@H](C)[C@@H](O[C@@H]2OC(CNC(=O)c3cnccn3)CC(N(C)C)C2O)[C@](C)(OC)C[C@@H](C)CN[C@H](C)[C@H]2N(CCCCn3cc(-c4cccc(N)c4)nn3)C(=O)O[C@]12C (some centres unmarked) [FSM-21881] | 8 µg/mL (≈ 8.43 µM) | > 32 µg/mL | > 32 µg/mL | > 32 µg/mL | > 32 µg/mL | ≤ 0.0312 µg/mL | 4 µg/mL | ≤ 0.0312 µg/mL | ≤ 0.0312 µg/mL | 2 µg/mL (≈ 2.11 µM) | 2 µg/mL (≈ 2.11 µM) | > 32 µg/mL | 16 µg/mL (≈ 16.9 µM) | > 32 µg/mL | > 32 µg/mL | > 32 µg/mL | 8 µg/mL (≈ 8.43 µM) | > 32 µg/mL | > 32 µg/mL | 8 µg/mL (≈ 8.43 µM) | MIC (S. pneumoniae; [29]): 2 µg/mL (≈ 2.11 µM); MIC (S. pneumoniae; [30]): 0.5 µg/mL (≈ 0.527 µM); MIC (E. coli; [14]): > 32 µg/mL; MIC (E. coli; [16]): 32 µg/mL (≈ 33.7 µM); MIC (A. baumannii; [18]): > 32 µg/mL; MIC (A. baumannii; [19]): > 32 µg/mL; MIC (K. pneumoniae; [23]): > 32 µg/mL; MIC (K. pneumoniae; [24]): 32 µg/mL (≈ 33.7 µM); MIC (P. aeruginosa; [26]): > 32 µg/mL; MIC (H. influenzae; [28]): 2 µg/mL (≈ 2.11 µM)
4 | CC[C@H]1OC(=O)[C@H](C)C(=O)[C@H](C)[C@@H](O[C@@H]2OC(CNC(=O)CN)CC(N(C)C)C2O)[C@](C)(OC)C[C@@H](C)CN[C@H](C)[C@H]2N(CCCCn3cc(-c4cccc(N)c4)nn3)C(=O)O[C@]12C (some centres unmarked) [FSM-21878] | 32 µg/mL (≈ 35.6 µM) | > 32 µg/mL | > 32 µg/mL | > 32 µg/mL | > 32 µg/mL | < 0.0313 µg/mL | 4 µg/mL | < 0.0313 µg/mL | < 0.0313 µg/mL | 4 µg/mL (≈ 4.44 µM) | 16 µg/mL (≈ 17.8 µM) | > 32 µg/mL | > 32 µg/mL | > 32 µg/mL | > 32 µg/mL | > 32 µg/mL | 16 µg/mL (≈ 17.8 µM) | > 32 µg/mL | > 32 µg/mL | > 32 µg/mL | MIC (S. pneumoniae; [29]): 8 µg/mL (≈ 8.89 µM); MIC (S. pneumoniae; [30]): 0.5 µg/mL (≈ 0.555 µM); MIC (H. influenzae; [28]): 32 µg/mL (≈ 35.6 µM)
